# Measured values reported in patent US12245597B2 (priority 2017, dated 2025).
# Assays:
# [1] = tested on: L. crescens; type: cell-based, Liberibacter crescens; settings: control, at each tested level
# [2] = tested on: CLas; type: in vivo, Candidatus Liberibacter asiaticus in citrus plants; settings: after twenty-eight days; soil drench, 10 Brix; p<0.05
# [3] = tested on: CLas; type: in vivo, Candidatus Liberibacter asiaticus in citrus plants; settings: forty-eight hours after treatment; soil drench
SMILES,inhibition [1] [%],"number of copies of CLas genes, change from the initial value [2]",change in PMA titer (positive = reduction in live bacteria) [3]
CN(C)[C@@H]1C(=O)C(C(N)=O)=C(O)[C@@]2(O)C(=O)C3=C(O)c4c(O)cccc4[C@@](C)(O)[C@H]3[C@H](O)[C@@H]12 [Oxytetracyclin],100,–,–
[H]/N=C(/N)N[C@H]1[C@H](O)[C@@H](O)[C@H](O[C@@H]2O[C@@H](C)[C@](O)(C=O)[C@H]2O[C@@H]2O[C@@H](CO)[C@H](O)[C@@H](O)[C@@H]2NC)[C@@H](N/C(N)=N\[H])[C@@H]1O [Streptomycin],–,significant reduction,positive values
